Experimental data: US9493446B2, “Orexin receptor antagonists which are [ortho bi-(hetero-)aryl]-[2-(meta bi-(hetero-)aryl)-pyrrolidin-1-yl]-methanone derivatives” (Actelion Pharmaceuticals Ltd, priority 2012, dated 2016)
Where two headings read alike, the source gives them in different places.

How the values were obtained:
[1] = target: human orexin-2 receptor (Homo sapiens (Human), UniProt O43614); assay: Intracellular calcium measurement (FLIPR), CHO cells expressing human orexin-2 receptor, 3 nM orexin-A; type: cell-based; settings: read-out: IC50 OX2
Procedure, shortened: (§1)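 CHO cells stably expressing each receptor were loaded with 3 μM fluo-4 AM plus 5 mM probenecid for 50 min at 37 °C, then equilibrated 30 min at rt.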

[2] = target: orexin-1 (Homo sapiens (Human), UniProt O43613); assay: Intracellular calcium measurement (FLIPR), CHO cells expressing human orexin-1 receptor, 3 nM orexin-A; type: cell-based; settings: read-out: IC50 OX1
Procedure, shortened: as §1

[3] = CHO cells expressing human orexin-2 receptor, FLIPR, 3 nM orexin-A, geometric mean if determined several times
[4] = CHO cells expressing human orexin-1 receptor, FLIPR, 3 nM orexin-A, geometric mean if determined several times

Sequence of orexin-1 (O43613 whole entry): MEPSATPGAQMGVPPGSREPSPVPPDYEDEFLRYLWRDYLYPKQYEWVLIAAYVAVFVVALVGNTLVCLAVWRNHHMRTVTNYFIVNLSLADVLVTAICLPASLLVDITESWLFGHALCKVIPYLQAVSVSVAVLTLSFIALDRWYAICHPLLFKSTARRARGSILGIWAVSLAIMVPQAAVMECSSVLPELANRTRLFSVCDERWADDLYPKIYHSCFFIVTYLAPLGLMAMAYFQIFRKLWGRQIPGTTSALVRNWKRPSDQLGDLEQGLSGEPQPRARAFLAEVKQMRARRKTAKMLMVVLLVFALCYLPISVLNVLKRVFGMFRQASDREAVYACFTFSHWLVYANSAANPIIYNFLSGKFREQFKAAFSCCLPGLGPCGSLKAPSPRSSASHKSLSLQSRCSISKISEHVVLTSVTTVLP
Sequence of human orexin-2 receptor (O43614 whole entry): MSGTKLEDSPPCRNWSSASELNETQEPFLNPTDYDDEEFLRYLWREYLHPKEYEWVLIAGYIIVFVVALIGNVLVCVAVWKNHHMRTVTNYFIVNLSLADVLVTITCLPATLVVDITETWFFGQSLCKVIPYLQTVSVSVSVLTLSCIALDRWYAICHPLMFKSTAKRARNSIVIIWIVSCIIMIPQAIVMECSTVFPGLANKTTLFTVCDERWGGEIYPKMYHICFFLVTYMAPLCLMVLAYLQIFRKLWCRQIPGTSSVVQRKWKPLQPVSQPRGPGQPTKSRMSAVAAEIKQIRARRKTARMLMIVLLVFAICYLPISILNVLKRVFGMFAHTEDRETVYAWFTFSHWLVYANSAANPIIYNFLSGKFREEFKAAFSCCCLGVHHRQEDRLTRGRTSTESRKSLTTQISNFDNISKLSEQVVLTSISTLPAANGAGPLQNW

| Structure (SMILES) | IC50 [1, 3] | IC50 [2, 4] | IC50 [1] | IC50 [2] |
| --- | --- | --- | --- | --- |
| Cc1nc(C(=O)N2CCC[C@H]2c2nnc(-c3ccccc3OC(F)(F)F)o2)c(-c2ccccc2F)s1 [compound 444, [5-(2-Fluoro-phenyl)-2-methyl-thiazol-4-yl]-{(S)-2-[5-(2-trifluoromethoxy-phenyl)-[1,3,4]oxadiazol-2-yl]-pyrrolidin-1-yl}-methanone] | 60 nM | 83 nM |  |  |
| COc1cc(C(=O)N2CCC[C@H]2c2nnc(-c3cccc(Cl)c3C)o2)c(-n2nccn2)cc1C [compound 445] |  | 157 nM | 9 nM |  |
| COc1cc(C(=O)N2CCC[C@H]2c2nnc(-c3cccc(Cl)c3C)o2)c(-n2nccn2)cc1Cl [compound 446] | 6 nM | 82 nM |  |  |
| Cc1cc(C(=O)N2CCC[C@H]2c2nnc(-c3cccc(Cl)c3C)o2)c(-n2nccn2)cc1C [compound 447] | 5 nM | 30 nM |  |  |
| Cc1ccc(-n2nccn2)c(C(=O)N2CCC[C@H]2c2nnc(-c3ccccc3OC(F)(F)F)[nH]2)c1 [compound 465, (5-Methyl-2-[1,2,3]triazol-2-yl-phenyl)-{(S)-2-[5-(2-trifluoromethoxy-phenyl)-4H-[1,2,4]triazol-3-yl]-pyrrolidin-1-yl}-methanone] | 10 nM | 76 nM |  |  |
| COc1ccccc1-c1nnc([C@@H]2CCCN2C(=O)c2cc(C)c(C)cc2-n2nccn2)[nH]1 [compound 466, (4,5-Dimethyl-2-[1,2,3]triazol-2-yl-phenyl)-{(S)-2-[5-(2-methoxy-phenyl)-4H-[1,2,4]triazol-3-yl]-pyrrolidin-1-yl}-methanone] | 69 nM | 26 nM |  |  |
| COc1cc(C(=O)N2CCC[C@H]2c2nnc(-c3ccccc3OC)[nH]2)c(-n2nccn2)cc1Cl [compound 467] | 10 nM | 63 nM |  |  |
| COc1cc(C(=O)N2CCC[C@H]2c2nnc(-c3ccccc3OC)[nH]2)c(-n2nccn2)cc1C [compound 468, (5-Methoxy-4-methyl-2-[1,2,3]triazol-2-yl-phenyl)-{(S)-2-[5-(2-methoxy-phenyl)-4H-[1,2,4]triazol-3-yl]-pyrrolidin-1-yl}-methanone] | 35 nM | 84 nM |  |  |
| COc1ccccc1-c1nnc([C@@H]2CCCN2C(=O)c2cc(Cl)c(C)cc2-n2nccn2)[nH]1 [compound 469] |  | 25 nM | 45 nM |  |
| COc1ccccc1-c1nnc([C@@H]2CCCN2C(=O)c2ccc(Cl)cc2-n2nccn2)[nH]1 [compound 470] |  | 57 nM | 31 nM |  |
| COc1ccccc1-c1nnc([C@@H]2CCCN2C(=O)c2ccc(C)cc2-n2nccn2)[nH]1 [compound 471, {(S)-2-[5-(2-Methoxy-phenyl)-4H-[1,2,4]triazol-3-yl]-pyrrolidin-1-yl}-(4-methyl-2-[1,2,3]triazol-2-yl-phenyl)-methanone] | 127 nM | 49 nM |  |  |
| COc1cc(C(=O)N2CCC[C@H]2c2nnc(-c3cccc(F)c3OC)[nH]2)c(-n2nccn2)cc1Cl [compound 472] | 2 nM | 19 nM |  |  |
| COc1cc(C(=O)N2CCC[C@H]2c2nnc(-c3cccc(F)c3OC)[nH]2)c(-n2nccn2)cc1C [compound 473, {(S)-2-[5-(3-Fluoro-2-methoxy-phenyl)-4H-[1,2,4]triazol-3-yl]-pyrrolidin-1-yl}-(5-methoxy-4-methyl-2-[1,2,3]triazol-2-yl-phenyl)-methanone] | 6 nM | 57 nM |  |  |
| COc1c(F)cccc1-c1nnc([C@@H]2CCCN2C(=O)c2cc(C)c(C)cc2-n2nccn2)[nH]1 [compound 474, (4,5-Dimethyl-2-[1,2,3]triazol-2-yl-phenyl)-{(S)-2-[5-(3-fluoro-2-methoxy-phenyl)-4H-[1,2,4]triazol-3-yl]-pyrrolidin-1-yl}-methanone] | 8 nM | 16 nM |  |  |
| COc1c(F)cccc1-c1nnc([C@@H]2CCCN2C(=O)c2cc(Cl)c(C)cc2-n2nccn2)[nH]1 [compound 475] | 2 nM |  |  | 11 nM |
| COc1c(F)cccc1-c1nnc([C@@H]2CCCN2C(=O)c2ccc(Cl)cc2-n2nccn2)[nH]1 [compound 476] | 3 nM | 27 nM |  |  |
| COc1c(F)cccc1-c1nnc([C@@H]2CCCN2C(=O)c2ccc(C)cc2-n2nccn2)[nH]1 [compound 477, {(S)-2-[5-(3-Fluoro-2-methoxy-phenyl)-4H-[1,2,4]triazol-3-yl]-pyrrolidin-1-yl}-(4-methyl-2-[1,2,3]triazol-2-yl-phenyl)-methanone] | 15 nM | 55 nM |  |  |

| Structure (SMILES) | IC50 [1, 3] | IC50 [2, 4] | IC50 [1] | IC50 [2] |
| --- | --- | --- | --- | --- |
| CCOc1ncccc1-c1nnc([C@@H]2CCCN2C(=O)c2cc(OC)c(Cl)cc2-n2nccn2)[nH]1 [compound 478] | 11 nM | 27 nM |  |  |
| CCOc1ncccc1-c1nnc([C@@H]2CCCN2C(=O)c2cc(OC)c(C)cc2-n2nccn2)[nH]1 [compound 479, {(S)-2-[5-(2-Ethoxy-pyridin-3-yl)-4H-[1,2,4]triazol-3-yl]-pyrrolidin-1-yl}-(5-methoxy-4-methyl-2-[1,2,3]triazol-2-yl-phenyl)-methanone] | 17 nM | 21 nM |  |  |
| CCOc1ncccc1-c1nnc([C@@H]2CCCN2C(=O)c2cc(C)c(C)cc2-n2nccn2)[nH]1 [compound 480, (4,5-Dimethyl-2-[1,2,3]triazol-2-yl-phenyl)-{(S)-2-[5-(2-ethoxy-pyridin-3-yl)-4H-[1,2,4]triazol-3-yl]-pyrrolidin-1-yl}-methanone] | 9 nM | 8 nM |  |  |
| CCOc1ncccc1-c1nnc([C@@H]2CCCN2C(=O)c2ccc(Cl)cc2-n2nccn2)[nH]1 [compound 481] | 21 nM | 26 nM |  |  |
| CCOc1ncccc1-c1nnc([C@@H]2CCCN2C(=O)c2ccc(C)cc2-n2nccn2)[nH]1 [compound 482, {(S)-2-[5-(2-Ethoxy-pyridin-3-yl)-4H-[1,2,4]triazol-3-yl]-pyrrolidin-1-yl}-(4-methyl-2-[1,2,3]triazol-2-yl-phenyl)-methanone] | 94 nM | 68 nM |  |  |
| O=C(c1ncsc1-c1ccccc1)N1CCC[C@H]1c1nnc(-c2ccccc2OC(F)(F)F)[nH]1 [compound 483, (5-Phenyl-thiazol-4-yl)-{(S)-2-[5-(2-trifluoromethoxy-phenyl)-4H-[1,2,4]triazol-3-yl]-pyrrolidin-1-yl}-methanone] | 1790 nM | 1620 nM |  |  |
| O=C(c1ncoc1-c1ccccc1)N1CCC[C@H]1c1nnc(-c2ccccc2OC(F)(F)F)[nH]1 [compound 484, (5-Phenyl-oxazol-4-yl)-{(S)-2-[5-(2-trifluoromethoxy-phenyl)-4H-[1,2,4]triazol-3-yl]-pyrrolidin-1-yl}-methanone] | 3000 nM | 5020 nM |  |  |
| Cc1cccc(-c2scnc2C(=O)N2CCC[C@H]2c2nnc(-c3ccccc3OC(F)(F)F)[nH]2)c1 [compound 485, (5-m-Tolyl-thiazol-4-yl)-{(S)-2-[5-(2-trifluoromethoxy-phenyl)-4H-[1,2,4]triazol-3-yl]-pyrrolidin-1-yl}-methanone] | 1230 nM | 1300 nM |  |  |
| Cc1cccc(-c2ocnc2C(=O)N2CCC[C@H]2c2nnc(-c3ccccc3OC(F)(F)F)[nH]2)c1 [compound 486, (5-m-Tolyl-oxazol-4-yl)-{(S)-2-[5-(2-trifluoromethoxy-phenyl)-4H-[1,2,4]triazol-3-yl]-pyrrolidin-1-yl}-methanone] | 3130 nM | 2360 nM |  |  |
| CCOc1ncccc1-c1nnc([C@@H]2CCCN2C(=O)c2cc(Cl)c(C)cc2-n2nccn2)[nH]1 [compound 487, (5-Chloro-4-methyl-2-[1,2,3]triazol-2-yl-phenyl)-{(S)-2-[5-(2-ethoxy-pyridin-3-yl)-4H-[1,2,4]triazol-3-yl]-pyrrolidin-1-yl}-methanone] | 8 nM | 23 nM |  |  |
| COc1c(Cl)cccc1-c1nnc([C@@H]2CCCN2C(=O)c2cc(C)ccc2-n2nccn2)[nH]1 [compound 488, {(S)-2-[5-(3-Chloro-2-methoxy-phenyl)-4H-[1,2,4]triazol-3-yl]-pyrrolidin-1-yl}-(5-methyl-2-[1,2,3]triazol-2-yl-phenyl)-methanone] | 14 nM | 136 nM |  |  |
| COc1c(Cl)cccc1-c1nnc([C@@H]2CCCN2C(=O)c2ccc(C)cc2-n2nccn2)[nH]1 [compound 489, {(S)-2-[5-(3-Chloro-2-methoxy-phenyl)-4H-[1,2,4]triazol-3-yl]-pyrrolidin-1-yl}-(4-methyl-2-[1,2,3]triazol-2-yl-phenyl)-methanone] | 10 nM | 62 nM |  |  |
| COc1cc(C(=O)N2CCC[C@H]2c2nnc(-c3cccc(Cl)c3OC)[nH]2)c(-n2nccn2)cc1C [compound 490, {(S)-2-[5-(3-Chloro-2-methoxy-phenyl)-4H-[1,2,4]triazol-3-yl]-pyrrolidin-1-yl}-(5-methoxy-4-methyl-2-[1,2,3]triazol-2-yl-phenyl)-methanone] | 2 nM | 120 nM |  |  |
| COc1cc(C(=O)N2CCC[C@H]2c2nnc(-c3cccc(Cl)c3OC)[nH]2)c(-n2nccn2)cc1Cl [compound 491, {(S)-2-[5-(3-Chloro-2-methoxy-phenyl)-4H-[1,2,4]triazol-3-yl]-pyrrolidin-1-yl}-(4-chloro-5-methoxy-2-[1,2,3]triazol-2-yl-phenyl)-methanone] | 1 nM | 33 nM |  |  |
| COc1c(Cl)cccc1-c1nnc([C@@H]2CCCN2C(=O)c2cc(C)c(C)cc2-n2nccn2)[nH]1 [compound 492, {(S)-2-[5-(3-Chloro-2-methoxy-phenyl)-4H-[1,2,4]triazol-3-yl]-pyrrolidin-1-yl}-(4,5-dimethyl-2-[1,2,3]triazol-2-yl-phenyl)-methanone] | 3 nM | 27 nM |  |  |
| Cc1ccc(-n2nccn2)c(C(=O)N2CCC[C@H]2c2nnc(-c3cccc(Cl)c3C)[nH]2)c1 [compound 493] |  | 1140 nM | 29 nM |  |
